Reference: patent US20040191239A1, “Treatment and prevention of reactive oxygen metabolite-mediated cellular damage” (priority 1999, published 2004)

Assays:
[1] = biological target: NADPH oxidase (Homo sapiens, UniProt P04839); conditions: substrate of the membrane-bound oxidase; cited from earlier work
[2] = cited from earlier work
[3] = system: brain tissue and cerebral vessels; conditions: cited from earlier work
[4] = Histamine administration time: efficacy and side effects; conditions: administered over longer than about 30 minutes
[5] = system: ROMs; conditions: predictive example; about 10 μg/kg/day subcutaneous as in Example 3
Method: Histamine, a H2-receptor agonist, at approximately 10 μg/kg/day, in a pharmaceutically acceptable form is introduced by subcutaneous injection into a subject experiencing or about to experience MI. The above procedure is repeated daily for 7 days.
Histamine is administered to a patient presenting subendocardial myocardial infarction, as described in Example 3.

[6] = system: HCV; conditions: cited from earlier work

NC(=O)C1=CN([C@@H]2O[C@H](COP(=O)(O)OP(=O)(O)OC[C@H]3O[C@@H](n4cnc5c(N)ncnc54)[C@H](O)[C@@H]3O)[C@@H](O)[C@H]2O)C=CC1 [NADH]
Km [1]: 450 µM

C#CCN(C)[C@H](C)Cc1ccccc1 [selegiline, L-deprenyl]
memory ([2]; 173 people, after six months): improved significantly
effect on the benefits of tacrine (Cognex) ([2]; another study, combination with tacrine): enhanced the benefits of tacrine
NO production ([3]; brain tissue and cerebral vessels): rapid increases in NO production
protection of the vascular endothelium ([3]; toxic effects of amyloid-beta peptide): protected the vascular endothelium

NCCc1c[nH]cn1 [Histamine, histamine]
efficacy [4]: decreased or lack of efficacy
release or production of ROMs [5]: prevention of the release or production of ROMs

NC(=O)C1=CN([C@@H]2O[C@H](COP(=O)(O)OP(=O)(O)OC[C@H]3O[C@@H](n4cnc5c(N)ncnc54)[C@H](OP(=O)(O)O)[C@@H]3O)[C@@H](O)[C@H]2O)C=CC1 [NADPH]
Km [1]: 45 µM

alpha-interferon
effectiveness in patients with HCV ([6]; chronic HCV infection): minimally effective
patients experiencing flu-like symptoms ([6]; in vivo): 60-80%
responding patients relapsing to a more progressive disease state ([6]; in vivo): approximately 70%
